Measured values as given in US20250346564A1 (ARase Therapeutics Inc., priority 2022, published 2025).

How the values were obtained:
PARG [1] = target: T1, PARG (Homo sapiens (Human), UniProt Q86W56); experiment: PARG target engagement cellular assay (PAR polymer immunostaining after cisplatin); type: cell-based; conditions: HCC1806 cells treated with cisplatin, then compound titration for 1 h; PAR polymer antibody readout
Description: Example a. Inhibition of PARG Target Engagement Cellular Assay
The ability of the compounds of the Examples to inhibit PARG was determined as described below. After treating HCC1806 cells with cisplatin, followed by PARG inhibitor compound titration for 1 h, the cells were fixed in formaldehyde. The cells were permeabilized, blocked, and incubated with antibody against poly (ADP) ribose (PAR) polymer. The cells were then washed and incubated with IR 800 conjugated secondary antibody together with TO-PRO3 iodide nuclear stain. After washing, images of the cells were captured and analyzed on Odyssey CLx instrument and analyzed using LI-COR image studio software.

PARG [2] = target: T1, PARG; experiment: PARG TFMU assay (4-(trifluoromethyl)umbelliferone substrate); type: biochemical; conditions: PARG 250 pM or 2 nM, 10-point dose response
Description: Example C. Inhibition of PARG TEMU Assay
The ability of the compounds of the Examples to inhibit PARG activity in 4. (trifluoromethyl)umbelliferone (TFMU) assay was determined as described below. PARG inhibitors were added into 384 well plate for a 10-point dose response curve at 1:3 dilutions. TFMU PARG substrate and PARG (250 pM or 2 nM) were then added to the plate to initiate enzymatic reaction. After incubation with the reagent, […] was read. IC50 values were calculated using set control points for 100% inhibition as no enzyme and 0% inhibition 250 pM or 2 nM of PARG enzyme.

T1 sequence (Q86W56 whole entry): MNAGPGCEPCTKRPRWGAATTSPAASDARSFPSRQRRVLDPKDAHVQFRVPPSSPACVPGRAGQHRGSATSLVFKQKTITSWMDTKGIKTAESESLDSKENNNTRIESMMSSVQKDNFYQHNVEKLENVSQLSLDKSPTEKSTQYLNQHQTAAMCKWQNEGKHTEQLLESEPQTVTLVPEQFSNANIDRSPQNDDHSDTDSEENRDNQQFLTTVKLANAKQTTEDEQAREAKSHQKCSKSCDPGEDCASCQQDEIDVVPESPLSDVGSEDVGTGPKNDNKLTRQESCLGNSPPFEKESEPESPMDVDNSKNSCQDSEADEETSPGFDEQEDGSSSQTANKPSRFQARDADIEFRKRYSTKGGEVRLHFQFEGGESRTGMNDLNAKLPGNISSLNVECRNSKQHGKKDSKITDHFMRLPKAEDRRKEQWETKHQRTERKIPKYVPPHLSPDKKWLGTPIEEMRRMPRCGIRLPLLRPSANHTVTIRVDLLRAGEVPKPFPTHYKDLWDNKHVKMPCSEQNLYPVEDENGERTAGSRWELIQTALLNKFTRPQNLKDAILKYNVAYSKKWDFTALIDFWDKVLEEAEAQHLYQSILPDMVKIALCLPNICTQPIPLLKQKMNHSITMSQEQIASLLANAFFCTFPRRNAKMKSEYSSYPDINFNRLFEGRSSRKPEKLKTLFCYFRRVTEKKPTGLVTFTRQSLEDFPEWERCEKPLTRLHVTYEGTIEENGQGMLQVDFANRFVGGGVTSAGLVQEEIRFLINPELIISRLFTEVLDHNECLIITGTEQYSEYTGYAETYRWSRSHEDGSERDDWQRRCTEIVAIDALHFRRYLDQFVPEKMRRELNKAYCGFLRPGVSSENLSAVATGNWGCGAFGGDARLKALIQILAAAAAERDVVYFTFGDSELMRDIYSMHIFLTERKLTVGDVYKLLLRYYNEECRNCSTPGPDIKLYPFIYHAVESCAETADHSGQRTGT

| Compound | IC50 (PARG [1]) | IC50 (PARG [2]) |
| --- | --- | --- |
| COC(=O)/C=C/CCn1c(=O)[nH]c2ccc(S(=O)(=O)NC3(C)COC3)cc2c1=O [Example 12, methyl (E)-5-(6-(N-(3-methyloxetan-3-yl)sulfamoyl)-2,4-dioxo-1,4-dihydroquinazolin-3(2H)-yl)pent-2-enoate] | > 100 µM | 500 to 5000 nM |
| CCn1c(=O)c2cc(S(=O)(=O)NC3(C(F)F)COC3)ccc2n(CC)c1=O [Example 18, N-(3-(difluoromethyl)oxetan-3-yl)-1,3-diethyl-2,4-dioxo-1,2,3,4-tetrahydroquinazoline-6-sulfonamide] | > 100 µM | 500 to 5000 nM |
| O=C(O)/C=C/Cn1c(=O)[nH]c2ccc(S(=O)(=O)NC34CC(C3)C4)cc2c1=O [Example 2, (2E)-4-[6-({bicyclo[1.1.1]pentan-1-yl}sulfamoyl)-2,4-dioxo-1H-quinazolin-3-yl]but-2-enoic Acid] | > 100 µM | ≥ 5000 nM |
| CNC(=O)/C=C/Cn1c(=O)[nH]c2ccc(S(=O)(=O)NC3(C)COC3)cc2c1=O [Example 19, (E)-N-methyl-4-(6-(N-(3-methyloxetan-3-yl)sulfamoyl)-2,4-dioxo-1,4-dihydroquinazolin-3(2H)-yl) but-2-enamide] | > 100 µM | 500 to 5000 nM |
| COC(=O)/C=C/Cn1c(=O)[nH]c2ccc(S(=O)(=O)NC3(C)COC3)cc2c1=O [Example 9, methyl (2E)-4-{6-[(3-methyloxetan-3-yl)sulfamoyl]-2,4-dioxo-1H-quinazolin-3-yl}but-2-enoate] | 10 to 100 µM | 500 to 5000 nM |
| CCOC(=O)/C=C/Cn1c(=O)[nH]c2ccc(S(=O)(=O)NC34CC(C3)C4)cc2c1=O [Example 1, ethyl (2E)-4-[6-({bicyclo[1.1.1]pentan-1-yl}sulfamoyl)-2,4-dioxo-1H-quinazolin-3-yl]but-2-enoate] | > 100 µM | ≥ 5000 nM |
| CC[C@H]1C[C@@]1(C)NS(=O)(=O)c1ccc2c(c1)c(=O)n(CC)c(=O)n2CC (single isomer, unassigned) [Example 13D] | > 100 µM | ≥ 5000 nM |
| Cc1ncc(Cn2c(=O)c3cc(S(=O)(=O)NC4(C)COC4)ccc3n(Cc3sc(C)nc3C)c2=O)s1 [Example 14, 1-((2,4-dimethylthiazol-5-yl)methyl)-N-(3-methyloxetan-3-yl)-3-((2-methylthiazol-5-yl)methyl)-2,4-dioxo-1,2,3,4-tetrahydroquinazoline-6-sulfonamide] | 10 to 100 µM | < 50 nM |
| CCn1c(=O)c2cc(S(=O)(=O)N[C@@]3(C)CO[C@H]3C)ccc2n(CC)c1=O (single isomer, unassigned) [Example 17A] | 10 to 100 µM | 50 to 500 nM |
